Measured values published in PubChem BioAssay AID1963829 (Molecular Pharmacology Branch, DTP, NCI, 2024).

Test system: 935938-334-R-J1-PDC complex spheroid viability
Experiment: Anticancer human tumor 935938-334-R-J1-PDC patient-derived small intestine adenocarcinoma cell line growth inhibition [POLQ]
Details: for IC50: curve of first compound; for viability, T/C: stronger effect = lower value; active = viability on the fitted dose curve at most 10% of control; inactive = the rest
Summary of the method: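 Complex spheroid viability model combining PDC tumour cells with endothelial (HUVEC) and MSC stromal cells. Novobiocin, ART-558 or RP6685 were tested singly and in combination with standard and investigational anticancer drugs. Each was titrated in half-log steps from near clinical Cmax, or from 10 microM where Cmax was unknown.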

[1] = second compound 0.0316 µM, first compound 0.0316 µM
[2] = second compound 0.0316 µM, first compound 0.1 µM
[3] = second compound 0.0316 µM, first compound 0.316 µM
[4] = second compound 0.0316 µM, first compound 1 µM
[5] = second compound 0.0316 µM, first compound 3.16 µM
[6] = second compound 0.0316 µM, first compound 10 µM
[7] = second compound 0.1 µM, first compound 0.0316 µM
[8] = second compound 0.1 µM, first compound 0.1 µM
[9] = second compound 0.1 µM, first compound 0.316 µM
[10] = second compound 0.1 µM, first compound 1 µM
[11] = second compound 0.1 µM, first compound 3.16 µM
[12] = second compound 0.1 µM, first compound 10 µM
[13] = second compound 0.316 µM, first compound 0.0316 µM
[14] = second compound 0.316 µM, first compound 0.1 µM
[15] = second compound 0.316 µM, first compound 0.316 µM
[16] = second compound 0.316 µM, first compound 1 µM
[17] = second compound 0.316 µM, first compound 3.16 µM
[18] = second compound 0.316 µM, first compound 10 µM
[19] = second compound 1 µM, first compound 0.0316 µM
[20] = second compound 1 µM, first compound 0.1 µM
[21] = second compound 1 µM, first compound 0.316 µM
[22] = second compound 1 µM, first compound 1 µM
[23] = second compound 1 µM, first compound 3.16 µM
[24] = second compound 1 µM, first compound 10 µM
[25] = second compound 3.16 µM, first compound 0.0316 µM
[26] = second compound 3.16 µM, first compound 0.1 µM
[27] = second compound 3.16 µM, first compound 0.316 µM
[28] = second compound 3.16 µM, first compound 1 µM
[29] = second compound 3.16 µM, first compound 3.16 µM
[30] = second compound 3.16 µM, first compound 10 µM
[31] = second compound 10 µM, first compound 0.0316 µM
[32] = second compound 10 µM, first compound 0.1 µM
[33] = second compound 10 µM, first compound 0.316 µM
[34] = second compound 10 µM, first compound 1 µM
[35] = second compound 10 µM, first compound 3.16 µM
[36] = second compound 10 µM, first compound 10 µM
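Also: spheroids exposed to drugs for seven days before viability read.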
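For viability, T/C in this document: 100% = DMSO vehicle control wells.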

CCc1cc2c(N3CCc4c(cc(Cn5ccnc5)cc4-c4cn(C)nc4C(F)(F)F)C3=O)cc(C)nc2c(OC)n1 + Nc1ccc(C#CCN(C(=O)Cc2ncc(C(F)(F)F)cc2C(F)(F)F)c2ccc(F)cc2)nn1
inactive: viability, T/C [1] 93.5% | viability, T/C [2] 62% | viability, T/C [3] 63.9% | viability, T/C [4] 73.7% | viability, T/C [5] 74.5% | viability, T/C [6] 66.7% | viability, T/C [7] 67.9% | viability, T/C [8] 66.2% | viability, T/C [9] 57.1% | viability, T/C [10] 52.9% | viability, T/C [11] 70.6% | viability, T/C [12] 57.8% | viability, T/C [13] 74.1% | viability, T/C [14] 65% | viability, T/C [15] 77.6% | viability, T/C [16] 60.9% | viability, T/C [17] 62.3% | viability, T/C [18] 63.5% | viability, T/C [19] 89.8% | viability, T/C [20] 60.6% | viability, T/C [21] 65% | viability, T/C [22] 65.5% | viability, T/C [23] 56.5% | viability, T/C [24] 49.1% | viability, T/C [25] 85.2% | viability, T/C [26] 63.3% | viability, T/C [27] 62% | viability, T/C [28] 58.1% | viability, T/C [29] 72.2% | viability, T/C [30] 56.6% | viability, T/C [31] 70.5% | viability, T/C [32] 75.1% | viability, T/C [33] 82.3% | viability, T/C [34] 72.8% | viability, T/C [35] 66.4% | viability, T/C [36] 61.1%
> 10 µM: IC50 (second compound 0.0316 µM) | IC50 (second compound 0.1 µM) | IC50 (second compound 0.316 µM) | IC50 (second compound 1 µM) | IC50 (second compound 3.16 µM) | IC50 (second compound 10 µM)

O=c1[nH]cc(F)c(=O)[nH]1 + Nc1ccc(C#CCN(C(=O)Cc2ncc(C(F)(F)F)cc2C(F)(F)F)c2ccc(F)cc2)nn1
inactive: viability, T/C [1] 83% | viability, T/C [2] 88.5% | viability, T/C [3] 87.4% | viability, T/C [4] 68.5% | viability, T/C [5] 62.7% | viability, T/C [6] 48.8% | viability, T/C [7] 101% | viability, T/C [8] 92.9% | viability, T/C [9] 82.1% | viability, T/C [10] 66.3% | viability, T/C [11] 60.7% | viability, T/C [12] 53.4% | viability, T/C [13] 81.5% | viability, T/C [14] 74.1% | viability, T/C [15] 88.9% | viability, T/C [16] 68.4% | viability, T/C [17] 55.8% | viability, T/C [18] 56.5% | viability, T/C [19] 103% | viability, T/C [20] 79.7% | viability, T/C [21] 104% | viability, T/C [22] 68.9% | viability, T/C [23] 55% | viability, T/C [24] 61% | viability, T/C [25] 92.2% | viability, T/C [26] 85.8% | viability, T/C [27] 86.6% | viability, T/C [28] 62.1% | viability, T/C [29] 61% | viability, T/C [30] 53.7% | viability, T/C [31] 125% | viability, T/C [32] 101% | viability, T/C [33] 91.8% | viability, T/C [34] 58.3% | viability, T/C [35] 52.4% | viability, T/C [36] 56.7%
> 10 µM: IC50 (second compound 0.0316 µM) | IC50 (second compound 0.1 µM) | IC50 (second compound 0.316 µM) | IC50 (second compound 1 µM) | IC50 (second compound 3.16 µM) | IC50 (second compound 10 µM)

CC1COCCN1c1cc(C2(S(C)(=N)=O)CC2)nc(-c2ccnc3[nH]ccc23)n1 (stereo unspecified) + Cc1cccc(N(C)C(=O)C2C(O)CCN2c2nc(C)cc(C(F)(F)F)c2C#N)c1
1.57 µM: IC50 (second compound 3.16 µM)
2.89 µM: IC50 (second compound 0.0316 µM)
inactive: viability, T/C [1] 116% | viability, T/C [2] 91.8% | viability, T/C [3] 91.4% | viability, T/C [4] 96.2% | viability, T/C [5] 46.1% | viability, T/C [6] 21.4% | viability, T/C [7] 113% | viability, T/C [8] 109% | viability, T/C [9] 86.1% | viability, T/C [10] 84.5% | viability, T/C [11] 44.6% | viability, T/C [12] 20.2% | viability, T/C [13] 82.6% | viability, T/C [14] 110% | viability, T/C [15] 69.1% | viability, T/C [16] 88.1% | viability, T/C [17] 38.9% | viability, T/C [18] 19.9% | viability, T/C [19] 110% | viability, T/C [20] 89% | viability, T/C [21] 97.6% | viability, T/C [22] 70.1% | viability, T/C [23] 44.4% | viability, T/C [24] 21.8% | viability, T/C [25] 97.7% | viability, T/C [26] 112% | viability, T/C [27] 72.3% | viability, T/C [28] 62.9% | viability, T/C [29] 36.4% | viability, T/C [30] 23.5% | viability, T/C [31] 116% | viability, T/C [32] 104% | viability, T/C [33] 117% | viability, T/C [34] 68% | viability, T/C [35] 41.2% | viability, T/C [36] 20.1%
2.52 µM: IC50 (second compound 1 µM)
3.05 µM: IC50 (second compound 0.1 µM)
2 µM: IC50 (second compound 10 µM)
2.44 µM: IC50 (second compound 0.316 µM)
